Source: patent US20120052122A1, “Treatment Of Chronic Obstructive Pulmonary Disease With Phosphodiesterase-4 Inhibitor” (Nycomed GmbH, priority 2010, published 2012)

Experiments:
[1] = system: CYP 1A2, 2A6, 2B6, 2C8, 2C9, 2C19, 2D6, 2E1, 3A4/5, or 4A9/11; assay: CYP inhibition in human liver microsomes; details: therapeutic plasma concentrations
[2] = human, in vivo

Inhibition of CYP 1A2, 2A6, 2B6, 2C8, 2C9, 2C19, 2D6, 2E1, 3A4/5, or 4A9/11 [1]: do not inhibit
Linearity of pharmacokinetics (Human pharmacokinetics; 250 mcg to 1,000 mcg): dose-proportional
Time of maximum plasma concentrations after dosing (Human pharmacokinetics; fasted state): about eight
Cmax (Human pharmacokinetics; in vivo): 8.5 ng/mL
Plasma AUC (Human pharmacokinetics; in vivo): 315 ugxh/L
Time to steady state plasma concentrations (Human pharmacokinetics; once daily dosing): ~6 days
Median plasma effective half-life (Human pharmacokinetics; oral dose): ~30 h
Absorption or pharmacokinetics on co-administration with an antacid [2]: did not alter
Structure (SMILES): O=C(Nc1c(Cl)c[n+]([O-])cc1Cl)c1ccc(OC(F)F)c(OCC2CC2)c1 [roflumilast N-oxide]
